Results taken from patent US4851436A, “HMG-CoA reductase inhibitors” (Merck & Co., Inc., priority 1987, dated 1989).

What was measured:
HMG-CoA reductase = assay: In vitro determination of HMG-CoA reductase inhibitory activity; type: biochemical, rat; settings: for Relative Potency: Relative to compactin arbitrarily assigned a value of 100; for IC50: purified rat liver microsomal HMG-CoA reductase, 37° C., 40 minutes, pH 7.2
Procedure: The intrinsic HMG-CoA reductase inhibition activity of the claimed compounds is measured in the in vitro protocol described below:
The In Vitro Determination of HMG-CoA Reductase Activity in Liver and the In Vitro Testing of Inhibitors
The procedure to measure in vitro HMG-CoA reductase activity in rat liver involves two steps and is based upon the procedure of Alberts et al:^1
1. Preparation of liver microsomal pellets.
2. Assay of the pellet for HMG-CoA reductase activity.
Reference: 1. Alberts, et al., Proceedings of the National Academy of Science, Vol. 77, pp. 3957-61 (1980).
Microsomes are prepared from livers of 150-200 g male rats (Charles River) maintained for a week on ground chow containing 2.0% cholestyramine, a bile acid sequestrant. The rats are sacrificed by cervical dislocation, and the livers removed immediately and chilled on ice. All subsequent operation are carried out at 0°-5° C.
Buffer I (for homogenization)
Procedure: all operation at 4° C.
Purification of HMG-CoA Reductase from Microsomal Pellet
Procedure: all operations are carried out at room temperature
The complete assay system is in a total volume of 0.8 ml in phosphate buffer at pH 7.2 (100 mM) with the cofactors at the following concentrations: MgCl2 3 mM; NADP, 3 mM; glucose-6-phosphate, 10 mM; glucose-6-phosphate dehydrogenase (ED 1.1.1.49) 3.0 enzyme units; reduced glutathione, 50 mM; HMG-CoA (Glutaryl-3-^14 C) 0.2 mM (0.1 μCi) and enzyme suspension, 0.1 ml.
The frozen pellet (enzyme) is allowed to thaw at room temperature for 5 minutes and carefully mixed with a stirring rod to a slurry with 0.1 ml of phosphate buffer (pH 7.2) and then diluted to 2.0 ml with the buffer. A volume (0.1 ml) of enzyme suspension is added to each incubation tube. Compounds to be tested are diluted to an appropriate concentration and added in a volume to 10 μ before adding the enzyme. An "untreated-control" is run along with the compounds.
The complete system is placed in 16×125 mm screw-cap culture tubes and shaken uncapped in a 37° C. water bath for 40 minutes at 160 oscillations per minute. At the end of this period the reaction is stopped by the addition of 0.4 ml of 8N HCl. 3 Mg of unlabeled mevalonolactone in 0.1 ml H2 O is added and the tubes shaken as before for an additional 30 minutes at 37° C. to ensure lactonization of the biosynthetic mevalonate.
200 μl of reaction mixture are applied to Bio-Rex 5 column (5 cm in a Pasteur pipette). Elute three times with one ml each of water into a scintillation vial. Add 10 ml of Aquasol-2, shake and count.
Bio-Rex is an ion-exchange resin, obtained from Bio-Rad. It comes dry in the chloride form and only the 100-200 mesh should be used. It is swelled in water for several hours; any fine particles should be decanted off as these will impair the flow rate. The hydrated resin should be stored at 4° C.
Each assay includes 2 untreated controls plus a "killed control" (reaction is stopped immediately before incubation by addition of 0.4 ml of 8N HCl).
After subtracting killed control CPM from all samples, percent inhibition by the test compounds is calculated as follows: [formula]

[1] = Stability of the free hydroxy acid on standing; type: physicochemical
Procedure: The sodium salt of the compound II from Example 17 is redissolved in 2 ml of ethanol-water (1:1) and added to 10 ml of 1N hydrochloric acid from which the hydroxy acid is extracted with ethyl acetate. The latter solvent is washed once with water, dried, and removed in vacuo with a bath temperature not exceeding 30° C.

Relative Potency (HMG-CoA reductase)	IC50 (HMG-CoA reductase)	SMILES	reversion of hydroxy acid to lactone [1]
80	20 nM	C[C@H]1C=C2C=C[C@H](C)[C@H](CC[C@@H](O)C[C@@H](O)CC(=O)O)[C@H]2[C@@H](OC(=O)C(C)(C)CO)C1 [n=1, R=H, R1=CH3, R2=CH3, R3=H]	–
64	15.6 nM	CC1C=C2C=CC(C)C(CCC(O)CC(O)CC(=O)O)C2C(OC(=O)C(C)(C)CCO)C1 [n=2, R=H, R1=CH3, R2=CH3, R3=H, 7-[1,2,6,7,8,8a(R)-Hexahydro-2(S),6(R)-dimethyl-8(S)-(2,2-dimethyl-4-hydroxybutyryloxy)naphthalenyl-1(S)]-3(R),5(R)-dihydroxyheptanoic acid]	slowly reverts to the lactone on standing
30	40 nM	CC(CCO)C(=O)O[C@H]1C[C@@H](C)C=C2C=C[C@H](C)[C@H](CC[C@@H](O)C[C@@H](O)CC(=O)O)[C@H]21 (stereo partly drawn) [n=2, R=H, R1=H, R2=CH3, R3=H]	–
63	30 nM	C[C@H]1C=C2C=C[C@H](C)[C@H](CC[C@@H](O)C[C@@H](O)CC(=O)O)[C@H]2[C@@H](OC(=O)C(C)(C)CCCO)C1 [n=3, R=H, R1=CH3, R2=CH3, R3=H]	–
